Legend:
[1] = tested on: pleuritis induced in the rat by carragen; experiment: pleuritis induced in the rat by carragen (Velo method); assay type: in vivo; conditions: 75 mg/kg, oral, rat
[2] = granuloma test in the rat by cotton pellets; assay type: in vivo; conditions: in vivo, 9 mg/kg, oral, read-out: TI (granuloma test)
From the text: (§1) In the granuloma test in the rat by cotton pellets (Winter […]. et al (1963) J. Pharm. Exper.

[3] = tested on: granuloma in the rat by cotton pellets; experiment: granuloma test in the rat by cotton pellets; assay type: in vivo; conditions: 9 mg/kg, oral
From the text: as §1

[4] = tested on: platelet aggregation induced by ADP; experiment: in vitro platelet aggregation induced by ADP (Born & Cross method); assay type: cell-based
Description: (§2) (1) "in vitro" tests on platelet aggregation induced by ADP and collagen, in the presence of the new products;
(§3) Blood was withdrawn without stasis, and an anticoagulant (3.8% sodium citrate) was added to give a blood:citrate ratio of 9:1. Plasma rich in platelets and plasma poor in platelets were obtained by centrifuging at ambient temperature.
(§4) The platelet aggregation was estimated using the Born & Cross method (G. V. R. Born and M. J. Cross, J. Physiol., Lond. 168, 178, 1963) on the plasma fraction rich in platelets.
(§5) The aggregating agents were used in the following concentrations:
(§6) ADP (Sigma) 1 μM; collagen (Horn) 5 μml; arachidonic acid 4×10^-4 M.
Adenosine at a concentration of 1×10^-5 M was used as the antiaggregation activity reference substance.
The results obtained with ADP are shown on the graphs of FIG. 1, in which the abscissa indicates the time in minutes and the ordinate the percentage aggregation.
Curve 1 relates to the controls, curve 2 to the samples treated with 1×10^-5 M adenosine, and curve 3 to the samples treated with 5×10^-4 M MTA.

[5] = tested on: platelet aggregation induced by ADP; experiment: platelet aggregation induced by ADP in persons treated with the product ("in vivo" tests); set-up: species or system healthy volunteer subjects; conditions: 100 mg every 8 hours for 3 days; ADP 1 μM; FIG. 4
Description: (§7) (3) "in vitro" tests on platelet aggregation induced by ADP and collagen in persons treated with the new products.
(§8) Three apparently healthy volunteer subjects respectively, and who had not taken any drug for at least 15 days, were submitted to aggregation tests before and after consuming the new products at a dose of 100 mg every 8 hours for 3 days, these tests then being evaluated. The blood sample for the determination of the platelet aggregation was taken 2 hours […] consuming the last dose of product under test.
More precisely, the full-line curves relate to the values obtained with blood samples from untreated patients, whereas the dashed-line curves relate to the values obtained for the same patients treated with MTA.

[6] = acute toxicity, DL50 in the mouse; conditions: in vivo, po, orally
From the text: The compounds of the present invention are practically free from acute toxicity when administered orally. They are practically free from toxicity at therapeutic doses for any method of administration. The following values are obtained for MTA and MTA sulphoxide: […]

mouse = experiment: hot plate test on the mouse according to Roberts (analgesic activity); assay type: in vivo; conditions: 37 mg/kg, oral
Description: C--The analgesic activity of the products was tested by two tests considered very significant.
In the hot plate test on the mouse according to Roberts (Roberts E. Simonsen D.G. (1966) Biochem. Pharmac. 15, 1875-) the MTA gives a protection of 50% with an oral dose of 37 mg/kg. An approximately equivalent protection of 58% is obtained with 100 mg/kg of amidopyrine administered orally.

[7] = tested on: sleep induced by pentobarbital in the mouse; experiment: Morris test, duration of the sleep induced by pentobarbital in the mouse; assay type: in vivo; conditions: 20 mg/kg, intramuscular
Description: The Morris test was used (Morris R. W. (1966) Arch. int. Pharmacodyn 161, No. 2, 380)
In this test, the MTA increased by 87% the duration of the sleep induced by pentobarbital in the mouse, at an intramuscular dose of 20 mg/kg.

[8] = tested on: fever induced in the rat by beer yeast; experiment: fever induced in the rat by beer yeast (antipyretic activity); assay type: in vivo
Description: This was measured for the new products by means of fever induced in the rat by beer yeast (Winder C. V. et al (1961) J. Pharmacol. Exp. Ther. 133, 117).

[9] = tested on: platelet aggregation induced by collagen; experiment: in vitro platelet aggregation induced by collagen (Born & Cross method); assay type: cell-based
Description: as §2, §3, §4, §5, §6

[10] = tested on: platelet aggregation induced by collagen; experiment: platelet aggregation induced by collagen in persons treated with the product ("in vivo" tests); set-up: species or system healthy volunteer subjects; conditions: 100 mg every 8 hours for 3 days; collagen 5 μg/ml
Description: as §7, §8

[11] = tested on: experimental edema in the rat by carragen; experiment: experimental edema in the rat by carragen (Winter method), percentage protection; assay type: in vivo; conditions: im; 23 mg/kg intramuscularly, rat; read-out: Percent protection calculated on edema development
Description: ^ (a) signifies that the product was administered intramuscularly.

[12] = tested on: platelet aggregation induced by arachidonic acid; experiment: in vitro platelet aggregation induced by arachidonic acid (AA); assay type: cell-based
Description: (2) "in vitro" tests on platelet aggregation induced by arachidonic acid (AA);
as §3, §4, §5, §6
The capacity of MTA to increase the inhibiting effect of prostacyclin (PGI2) in aggregation induced by AA was also investigated. In FIG. 3, curve 1 relates to the controls, curve 2 to MTA at a concentration of 5×10^-4 M, curve 3 to PGI2 at a concentration of 5×10^-9 M, and curve 4 to a mixture consisting of 5×10^-4 M MTA and 5×10^-9 M PGI2.

[13] = tested on: stretching by phenylquinone; experiment: stretching test by phenylquinone (analgesic activity); assay type: in vivo; conditions: 37 mg/kg, oral
[14] = tested on: experimental edema in the rat by carragen; experiment: experimental edema in the rat by carragen (Winter method), percentage protection; assay type: in vivo; conditions: po, rat
[15] = lethal dose in the rat and therapeutical index; conditions: in vivo
gastro-intestinal system = experiment: secondary effects on the gastro-intestinal system at ED50 doses (gastric lesions); assay type: in vivo, rat; conditions: rat, in vivo
Description: In the same test, the ED50 of indomethacine is 9 mg/kg.

[16] = summary of in vitro and in vivo tests

CSC[C@H]1O[C@@H](n2cnc3c(N)ncnc32)[C@H](O)[C@@H]1O [MTA, 5'-deoxy-5'-methyl-thioadenosine]
protection calculated on the total number of cells present in the exudate [1]: 48.8%
protection calculated on the volume of the exudate [1]: 42.4%
selectivity ratio [2]: 222
protection in the granuloma test [3]: 30%
effect on primary platelet aggregation due to ADP (in words) ([4]; 5×10^-4 M, ADP 1 μM, in vitro, FIG. 1): strongly reduces primary platelet aggregation due to ADP
effect on 2nd aggregation wave (in words) ([4]; 5×10^-4 M, ADP 1 μM, in vitro, as a consequence of reduced primary aggregation): inhibits the 2nd aggregation wave
effect on the 1st aggregation wave (in words) [4, 16]: inhibits the 1st aggregation wave
inhibition of platelet aggregation induced by ADP, overall (in words) [4, 16]: strongly inhibits platelet aggregation induced by ADP
platelet aggregation induced by ADP "in vivo" (in words) [5]: strongly inhibits platelet aggregation induced by ADP
LD50 [6]: > 2000 mg/kg
protection in the hot plate test (mouse): 50%
increase of the duration of the sleep induced by pentobarbital [7]: 87%
temperature reduction ([8]; 80 mg/kg, intramuscular): 2.35%
temperature reduction with respect to the controls ([8]; 300 mg/kg, oral, one hour after administration): 4.59%
temperature after lowering (from 38.8° C.) ([8]; 300 mg/kg, oral, one hour after administration, lowering from 38.8° C.): 37.4 °C
inhibiting power towards platelet aggregation induced by collagen (in words) ([9]; in vitro, collagen printed 5 μml): no inhibiting power towards platelet aggregation induced by collagen which was worthy of note
direct effect on the 2nd aggregation wave (in words) [9, 16]: negligible direct effect on the 2nd aggregation wave
effect on aggregation induced by collagen, overall (in words) [9, 16]: practically no effect on aggregation induced by collagen
inhibition of platelet aggregation induced by collagen (in words) [10]: not effective in inhibiting platelet aggregation induced by collagen
latency time of platelet aggregation induced by collagen (in words) [10]: lengthens the latency time
inhibition in vivo at 23 mg/kg [11]: 50%
platelet aggregation inhibiting effect, AA induced (in words) ([12]; 2.5×10^-4, 5×10^-4 and 10^-3 M, AA 4×10^-4 M, FIG. 2): proportional to its concentration
antiaggregation action alone, AA induced (in words) ([12]; MTA 5×10^-4 M or PGI2 5×10^-9 M, each alone, FIG. 3): ineffective
protection in the stretching test by phenylquinone [13]: 51%
inhibition in vivo at 37 mg/kg ([14]; 37 mg/kg orally, read-out: Percent protection calculated on edema development): 50%
ED50 ([14]; administered orally, read-out: ED50 (edema test)): 37 mg/kg
selectivity ratio ([15]; edema test in the rat, read-out: therapeutical index (TI)): > 54
LD50 ([15]; rat, route printed "/oa"): 200 mg/kg
secondary effect on the gastro-intestinal system / gastric lesions (gastro-intestinal system): no secondary effect on the gastro-intestinal system
